# Key:
# Assay type in all cases: in vivo
# Conditions in all cases: duloxetine 30 mg/kg daily
# [1] = test system: Peripheral Sensory Neuropathy Induced by Oxaliplatin in Mice; assay: cold plate test, oxaliplatin-induced peripheral sensory neuropathy
# Method: Male Balb/c mice of 6 to 7 weeks old were used. The mice were divided into three groups: a control group, an oxaliplatin administration group, and an oxaliplatin and Lentinus edodes mycelium extract administration group (oxaliplatin+Lentinus edodes mycelium extract administration group). Oxaliplatin was administered to each mouse once a day at a dose of 6 mg/kg. Further, the Lentinus edodes mycelium extract was administered to each mouse once a day at a dose of 2 g/kg.
# Further, the number of times of administration was set to once a week (on Day 0, Day 7, and Day 14) for oxaliplatin and daily (from Day 0 to Day 15) for the Lentinus edodes mycelium extract in both the von Frey test and the cold plate test below.
# Oxaliplatin was administered to each mouse once a day at a dose of 6 mg/kg. Further, the Lentinus edodes mycelium extract was administered to each mouse once a day at a dose of 2 g/kg three days or six days after the administration of oxaliplatin. These groups are referred to as “Lentinus edodes mycelium extract 3-day delayed administration group” and “Lentinus edodes mycelium extract 6-day delayed administration group”, respectively.
# Further, groups in which duloxetine was administered after the administration of oxaliplatin were prepared for comparison.
# [2] = test system: Peripheral Sensory Neuropathy Induced by Paclitaxel in Mice; assay: cold plate test, paclitaxel-induced peripheral sensory neuropathy
# Method: The effect of the Lentinus edodes mycelium extract on the paresthesia to cold stimulation was tested by performing the cold plate test. The mice in the three groups in the above (1) were put on a cold plate set to 10° C. and a response time for avoidance (a latency) was measured. The shorter latency means that the mouse avoids the cold stimulation of the cold plate more.
# In the present test, the mice were divided into four groups by a difference in test objects. As in Example 1, male Balb/c mice of 6 to 7 weeks old were used. The mice were divided into a total of four groups, a control group, a paclitaxel administration group, and two different paclitaxel and Lentinus edodes mycelium extract administration groups (paclitaxel+Lentinus edodes mycelium extract administration groups). […] Further, a group in which the Lentinus edodes mycelium extract was administered to each mouse once a day at a dose of 1 g/kg (hereinafter referred to as “1 g/kg administration group”) and a group in which the Lentinus edodes mycelium extract was administered to each mouse once a day at a dose of 2 g/kg (hereinafter referred to as “2 g/kg administration group”) were prepared.
# Evaluation was performed in the same manner as in the test with oxaliplatin. Referring to FIG. 4, the horizontal axis indicates the elapsed time after administration (days) and the vertical axis indicates the avoidance response time (seconds). Open circles with a solid line represent the control group. Filled circles with a solid line represent the group in which only paclitaxel was administered. Open squares with a dash line and filled squares with a dash line represent the groups in which paclitaxel and the Lentinus edodes mycelium extract were administered at the same time (paclitaxel+Lentinus edodes mycelium extract administration groups). […] When the difference with the control group was determined to be significant using a significance level of 5%, the data were marked by “*”. […]
# [3] = test system: Peripheral Sensory Neuropathy Induced by Vincristine in Mice; assay: von Frey test, vincristine-induced peripheral sensory neuropathy
# Excerpt: The mice in the three groups in the above (1) were put in a cage and a filament having a strength of 0.16 g was pressed on the plantar surface of the leg to measure the number of times (a score) of avoidance response.
# In the present test, the mice were divided into three groups by a difference in test objects. As in Example 1, male Balb/c mice of 6 to 7 weeks old were used. The mice were divided into a total of three groups, a control group, a vincristine administration group, and a vincristine and Lentinus edodes mycelium extract administration group (vincristine+Lentinus edodes mycelium extract administration group).
# Vincristine was administered to each mouse once a day at a dose of 0.2 mg/kg. Further, the Lentinus edodes mycelium extract was administered to each mouse once a day at a dose of 2 g/kg.
# Further, the number of times of administration was set to once a week (on Day 0, Day 7, and Day 14) for vincristine and daily (from Day 0 to Day 15) for the Lentinus edodes mycelium extract in both the von Frey test and the cold plate test below.
# Evaluation was performed in the same manner as in the test with oxaliplatin in Example 1. Referring to FIG. 5, the horizontal axis indicates an elapsed time after administration (days) and the vertical axis indicates the avoidance response (scores). Open circles with a solid line represent the control group. Filled circles with a solid line represent the group in which only vincristine was administered. Open squares with a dash line represent the group in which vincristine and the Lentinus edodes mycelium extract were administered at the same time (vincristine+Lentinus edodes mycelium extract administration group). When the difference with the control group was determined to be significant using a significance level of 5%, the data were marked by “*”.
# In the present test, the mice were divided into six groups by a difference in test objects. As in Example 1, male Balb/c mice of 6 to 7 weeks old were used. […]
compound,measurement,setting,value
CNCC[C@H](Oc1cccc2ccccc12)c1cccs1 [duloxetine],"latency compared with oxaliplatin administration group, cold plate test",[1]; 3-day delayed after oxaliplatin,almost the same as that in the oxaliplatin administration group
same,"latency, cold plate test",[1]; 6-day delayed after oxaliplatin,same tendency as that in the duloxetine 3-day delayed administration group
same,"latency compared with paclitaxel administration group, cold plate test",[2]; 3-day delayed after paclitaxel,almost the same as that in the paclitaxel administration group
same,"latency, cold plate test",[2]; 6-day delayed after paclitaxel,same tendency as that in the duloxetine 3-day delayed administration group
same,"avoidance score compared with vincristine administration group, von Frey test",[3]; 3-day delayed after vincristine,almost the same score as that in the vincristine administration group
same,"avoidance score, von Frey test",[3]; 6-day delayed after vincristine,same tendency as that in the duloxetine 3-day delayed administration group

# From patent US11793845B2, “Composition for ameliorating peripheral sensory neuropathy” (KINKI UNIVERSITY, priority 2016, dated 2023)
